Assay results reported in US20120269793A1, “PHYTOESTROGENIC FORMULATIONS FOR ALLEVIATION OR PREVENTION OF HAIR LOSS” (University of Southern California, priority 2010, published 2012).
Each block holds one molecule with its values, some of them ahead of it.

How the values were obtained:
[1] = molecular target: T1, ERα (Homo sapiens, UniProt P03372); assay: fluorescent polarization competitive binding assay, ERα; design: purchased PanVera Corp; host or cells: baculovirus expression; settings: for IC50: class symbol NC
T1 sequence (P03372 1-595): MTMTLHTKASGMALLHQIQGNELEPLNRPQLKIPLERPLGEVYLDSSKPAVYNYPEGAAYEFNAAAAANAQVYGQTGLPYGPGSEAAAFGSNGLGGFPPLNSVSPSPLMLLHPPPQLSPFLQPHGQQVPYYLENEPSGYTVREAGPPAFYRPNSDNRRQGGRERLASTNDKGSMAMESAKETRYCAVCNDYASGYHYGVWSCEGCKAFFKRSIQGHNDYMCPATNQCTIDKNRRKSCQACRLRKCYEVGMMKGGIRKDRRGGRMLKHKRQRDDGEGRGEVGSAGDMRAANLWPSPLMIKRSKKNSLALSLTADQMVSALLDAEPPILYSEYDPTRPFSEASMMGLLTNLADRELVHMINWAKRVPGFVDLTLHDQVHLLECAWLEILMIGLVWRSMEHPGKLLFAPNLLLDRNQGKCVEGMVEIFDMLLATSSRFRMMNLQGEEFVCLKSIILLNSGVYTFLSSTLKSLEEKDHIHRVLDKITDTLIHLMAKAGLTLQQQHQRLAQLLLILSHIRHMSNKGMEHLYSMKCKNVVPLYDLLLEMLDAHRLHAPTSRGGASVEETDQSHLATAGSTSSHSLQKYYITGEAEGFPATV

[2] = molecular target: T2, ERβ (Homo sapiens, UniProt Q92731); assay: fluorescent polarization competitive binding assay, ERβ; design: purchased PanVera Corp; host or cells: baculovirus expression; settings: for IC50: class symbol NC
Target sequence in this assay (Q92731 whole entry): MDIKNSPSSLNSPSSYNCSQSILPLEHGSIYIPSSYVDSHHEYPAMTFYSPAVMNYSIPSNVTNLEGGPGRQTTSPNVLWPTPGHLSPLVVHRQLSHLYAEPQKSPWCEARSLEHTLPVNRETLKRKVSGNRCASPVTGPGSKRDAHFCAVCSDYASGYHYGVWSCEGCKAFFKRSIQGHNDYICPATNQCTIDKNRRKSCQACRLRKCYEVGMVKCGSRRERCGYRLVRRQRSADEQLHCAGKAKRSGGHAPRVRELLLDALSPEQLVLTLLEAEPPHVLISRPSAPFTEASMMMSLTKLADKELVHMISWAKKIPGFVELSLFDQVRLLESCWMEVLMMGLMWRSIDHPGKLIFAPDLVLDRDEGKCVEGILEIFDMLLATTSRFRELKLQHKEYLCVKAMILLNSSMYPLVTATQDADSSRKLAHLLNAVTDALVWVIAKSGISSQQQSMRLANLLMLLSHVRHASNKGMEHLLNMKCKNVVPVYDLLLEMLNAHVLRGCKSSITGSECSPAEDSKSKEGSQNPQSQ

[3] = molecular target: T1, ERα; settings: cited from earlier work
[4] = molecular target: T2, ERβ; settings: cited from earlier work
Target sequence in this assay (Q92731 whole entry, species assumed): as the sequence (Q92731 whole entry) above

SMILES: Oc1ccc(C2COc3cc(O)ccc3C2)cc1 (stereo not shown) [Compd 2]
IC50 [1]: > 1000 µM

SMILES: Oc1ccc([C@H]2COc3cc(O)ccc3C2)cc1 [S-equol]
binding affinity for ERα compared to ERβ [3]: 10 fold less
relative binding affinity for ERα compared to 17β-estradiol [3]: 49.2 fold less
Kd [4]: 0.0007 µM
binding to ERβ relative to 17β-estradiol [4]: approximately 20%

SMILES: Oc1ccc([C@@H]2COc3cc(O)ccc3C2)cc1 [R-equol]
relative binding affinity for ERα compared to 17β-estradiol [3]: 210.6 fold less
binding to ERβ, R-equol enantiomer, fold less [4]: approximately 100 fold less

SMILES: CC(=O)[C@H]1CC[C@H]2[C@@H]3CCC4=CC(=O)CC[C@]4(C)[C@H]3CC[C@]12C [progesterone, reference compound]
binding to ERα (in words) [1]: does not bind
binding to ERβ / the receptor (in words) [2]: does not bind

Results, then the molecule that gave them:

IC50 [1]: > 1000 µM
binding to ERβ / the receptor (in words) [2]: either very weak or no binding
IC50 [2]: > 1000 µM
SMILES: Cc1oc2cc(O)ccc2c(=O)c1-c1cc2ccccc2o1 [Compd 4]

binding to ERβ / the receptor (in words) [2]: either very weak or no binding
SMILES: O=c1nc2n(c3cc4ccccc4cc13)Cc1ccccc1-2 [Compd 12]

IC50 [1]: > 1000 µM
binding to ERβ / the receptor (in words) [2]: either very weak or no binding
IC50 [2]: > 1000 µM
SMILES: O=c1oc2cc(OCc3cccc(O)c3)ccc2c2c1CCC2 [Compd 10]
